According to the supplement of paper PMC10307832:

Key:
Experiment in all cases: relative viability (nuclei count vs DMSO), 5 days (fraction); higher = more cells survive
Afatinib + Lapatinib = compound: CN(C)C/C=C/C(=O)Nc1cc2c(Nc3ccc(F)c(Cl)c3)ncnc2cc1O[C@H]1CCOC1 [Afatinib] + CS(=O)(=O)CCNCc1ccc(-c2ccc3ncnc(Nc4ccc(OCc5cccc(F)c5)c(Cl)c4)c3c2)o1 [Lapatinib] (partner 2 µM)
Outline: (§1)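 Cells from lung cancer lines were seeded into 1536-well plates and, one day later, dosed by pin tool. Treatments were either a single drug or a fixed dose of an anchor drug with five library-drug doses (not always all listed) in √10 steps. After 5 days, nuclei were stained in a one-step fixation (final 0.05% Triton X-100, 1% formaldehyde, 1 ug/ml Hoechst) and counted on 4× images, and relative viability is the treated-to-vehicle nuclei ratio, as the median of duplicate plates.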

Afatinib + Trametinib = compound: CN(C)C/C=C/C(=O)Nc1cc2c(Nc3ccc(F)c(Cl)c3)ncnc2cc1O[C@H]1CCOC1 [Afatinib] + CC(=O)Nc1cccc(-n2c(=O)n(C3CC3)c(=O)c3c(Nc4ccc(I)cc4F)n(C)c(=O)c(C)c32)c1 [Trametinib] (partner 0.02 µM)
Outline: as §1

Afatinib + Linsitinib = compound: CN(C)C/C=C/C(=O)Nc1cc2c(Nc3ccc(F)c(Cl)c3)ncnc2cc1O[C@H]1CCOC1 [Afatinib] + C[C@]1(O)C[C@@H](c2nc(-c3ccc4ccc(-c5ccccc5)nc4c3)c3c(N)nccn32)C1 [Linsitinib] (partner 1 µM)
Outline: as §1

Afatinib + OSI-027 = compound: CN(C)C/C=C/C(=O)Nc1cc2c(Nc3ccc(F)c(Cl)c3)ncnc2cc1O[C@H]1CCOC1 [Afatinib] + COc1cccc2cc(-c3nc([C@H]4CC[C@H](C(=O)O)CC4)n4ncnc(N)c34)[nH]c12 [OSI-027] (partner 0.5 µM)
Outline: as §1

| Cell Line | relative viability (Afatinib + Lapatinib; first compound 0.005 µM) | relative viability (Afatinib + Lapatinib; first compound 0.01581 µM) | relative viability (Afatinib + Lapatinib; first compound 0.05 µM) | relative viability (Afatinib + Lapatinib; first compound 0.1581 µM) | relative viability (Afatinib + Lapatinib; first compound 0.5 µM) | relative viability (Afatinib + Trametinib; first compound 0.005 µM) | relative viability (Afatinib + Trametinib; first compound 0.01581 µM) | relative viability (Afatinib + Trametinib; first compound 0.05 µM) | relative viability (Afatinib + Trametinib; first compound 0.1581 µM) | relative viability (Afatinib + Trametinib; first compound 0.5 µM) | relative viability (Afatinib + Linsitinib; first compound 0.005 µM) | relative viability (Afatinib + Linsitinib; first compound 0.01581 µM) | relative viability (Afatinib + Linsitinib; first compound 0.05 µM) | relative viability (Afatinib + Linsitinib; first compound 0.1581 µM) | relative viability (Afatinib + Linsitinib; first compound 0.5 µM) | relative viability (Afatinib + OSI-027; first compound 0.005 µM) | relative viability (Afatinib + OSI-027; first compound 0.01581 µM) | relative viability (Afatinib + OSI-027; first compound 0.05 µM) | relative viability (Afatinib + OSI-027; first compound 0.1581 µM) | relative viability (Afatinib + OSI-027; first compound 0.5 µM) |
| --- | --- | --- | --- | --- | --- | --- | --- | --- | --- | --- | --- | --- | --- | --- | --- | --- | --- | --- | --- | --- |
| NCI-H2405 | 1.11 | 1.09 | 1.33 | 1.04 | 1.07 | 0.597 | 0.482 | 0.529 | 0.537 | 0.594 | 0.808 | 0.875 | 0.963 | 0.836 | 0.906 | 0.65 | 0.67 | 0.712 | 0.603 | 0.701 |
| NCI-H3122 | 1.03 | 1.02 | 1.05 | 0.992 | 1.04 | 0.186 | 0.192 | 0.224 | 0.248 | 0.223 | 1.02 | 1.02 | 0.963 | 0.822 | 1.08 | 1.03 | 0.922 | 0.977 | 0.951 | 0.881 |
| PC-3 [JPC-3] | 0.445 | 0.425 | 0.428 | 0.472 | 0.416 | 0.441 | 0.4 | 0.443 | 0.285 | 0.438 | 0.593 | 0.451 | 0.439 | 0.461 | 0.392 | 0.257 | 0.271 | 0.23 | 0.182 | 0.238 |
| PC-14 | 0.295 | 0.222 | 0.258 | 0.301 | 0.288 | 0.101 | 0.103 | 0.117 | 0.0763 | 0.0964 | 0.271 | 0.255 | 0.176 | 0.237 | 0.23 | 0.103 | 0.104 | 0.136 | 0.131 | 0.0975 |
| RERF-LC-KJ | 0.83 | 0.919 | 0.849 | 0.834 | 0.83 | 0.852 | 0.806 | 0.723 | 0.684 | 0.674 | 0.888 | 0.9 | 0.76 | 0.656 | 0.716 | 0.527 | 0.439 | 0.448 | 0.336 | 0.318 |
| SK-LU-1 | 1.33 | 0.89 | 0.803 | 0.941 | 0.915 | 0.504 | 0.405 | 0.604 | 0.526 | 0.483 | 1.39 | 1.11 | 1.2 | 1.02 | 1.01 | 0.389 | 0.415 | 0.327 | 0.318 | 0.352 |
| SK-MES-1 | 0.423 | 0.393 | 0.459 | 0.444 | 0.467 | 0.424 | 0.317 | 0.349 | 0.307 | 0.42 | 1 | 0.975 | 0.543 | 0.406 | 0.429 | 0.36 | 0.405 | 0.307 | 0.265 | 0.26 |
| SW 1573 | 1.03 | 1.09 | 1.14 | 1.07 | 1.27 | 0.524 | 0.551 | 0.616 | 0.526 | 0.53 | 0.773 | 0.865 | 0.649 | 0.731 | 0.703 | 0.607 | 0.516 | 0.644 | 0.541 | 0.618 |
| UMC-11 | 1.07 | 0.919 | 0.846 | 0.802 | 1 | 0.73 | 0.732 | 0.667 | 0.7 | 0.908 | 0.996 | 0.973 | 1.04 | 0.97 | 1.04 | 0.469 | 0.427 | 0.462 | 0.46 | 0.456 |
